The source made the active and inactive calls. No cut-off for these calls is given here.
Key:
HepG2 [1] = test: Effect on nonphosphorylated ERK1/ERK2 level in human doxorubicin-resistant HepG2 cells expressing p-gp at 25 uM by Western blot analysis; type: ADME, cell-based; conditions: hepg2, 25 µM
HepG2 [2] = test: Induction of apoptosis in human HepG2 cells assessed as increase in PARP cleavage at 25 uM after 24 hrs by Western blotting; type: functional, cell-based
HepG2 [3] = test: Increase of SAPK/JNK phosphorylation in human HepG2 cells at 25 uM by Western blot analysis; type: cell-based
HepG2 [4] = test: Effect on nonphosphorylated p38 MAPK level in human doxorubicin-resistant HepG2 cells expressing p-gp at 25 uM by Western blot analysis; type: ADME, cell-based; conditions: hepg2, 25 µM
HepG2 [5] = test: Induction of apoptosis in human HepG2 cells assessed as activation of caspase-3/8/9 at 25 uM after 24 hrs by Western blotting; type: functional, cell-based
HepG2 [6] = test: Increase of SAPK/JNK phosphorylation in human doxorubicin-resistant HepG2 cells expressing p-gp at 25 uM by Western blot analysis; type: cell-based
HepG2 [7] = test: Effect on nonphosphorylated p38 MAPK level in human HepG2 cells at 25 uM by Western blot analysis; type: ADME, cell-based; conditions: hepg2, 25 µM
[8] = target: T1, MAP kinase p38 (Homo sapiens) (UniProt O15264+Q15759+Q16539+P53778); test: Inhibition of p38 MAPK phosphorylation in human doxorubicin-resistant HepG2 cells expressing p-gp at 25 uM by Western blot analysis; type: cell-based
HepG2 [9] = test: Induction of apoptosis in human doxorubicin-resistant HepG2 cells expressing p-gp assessed as increase in PARP cleavage at 25 uM after 24 hrs by Western blotting; type: functional, cell-based
HepG2 [10] = test: Induction of apoptosis in human doxorubicin-resistant HepG2 cells expressing p-gp assessed as activation of caspase-3/8/9 at 25 uM after 24 hrs by Western blotting; type: functional, cell-based
[11] = target: T2, Mitogen-activated protein kinase; ERK1/ERK2 (Homo sapiens) (UniProt P27361+P28482); test: Inhibition of ERK1/2 phosphorylation in human HepG2 cells at 25 uM by Western blot analysis; type: cell-based
T2 sequence (P27361 whole entry, looked up): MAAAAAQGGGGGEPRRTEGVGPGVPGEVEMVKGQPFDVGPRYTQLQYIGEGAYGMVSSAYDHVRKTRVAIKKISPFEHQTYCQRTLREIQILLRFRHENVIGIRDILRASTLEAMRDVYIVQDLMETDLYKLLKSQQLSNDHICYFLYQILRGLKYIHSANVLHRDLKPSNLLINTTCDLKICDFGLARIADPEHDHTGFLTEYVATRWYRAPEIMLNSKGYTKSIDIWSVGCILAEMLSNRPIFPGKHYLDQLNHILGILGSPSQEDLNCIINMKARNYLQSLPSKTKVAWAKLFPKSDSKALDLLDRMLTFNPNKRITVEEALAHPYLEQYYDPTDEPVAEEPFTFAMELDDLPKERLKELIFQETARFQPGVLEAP
T2 sequence (P28482 whole entry, looked up): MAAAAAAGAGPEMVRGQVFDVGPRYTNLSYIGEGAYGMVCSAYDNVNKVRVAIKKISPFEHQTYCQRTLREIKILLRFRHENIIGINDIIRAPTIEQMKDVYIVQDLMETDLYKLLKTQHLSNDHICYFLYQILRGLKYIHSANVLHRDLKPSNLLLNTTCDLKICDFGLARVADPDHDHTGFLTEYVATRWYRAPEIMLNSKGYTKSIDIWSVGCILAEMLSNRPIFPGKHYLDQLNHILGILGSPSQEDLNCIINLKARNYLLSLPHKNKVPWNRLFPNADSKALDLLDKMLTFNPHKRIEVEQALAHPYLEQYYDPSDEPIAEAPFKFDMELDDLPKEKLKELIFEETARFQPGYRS

HepG2 [12] = test: Effect on nonphosphorylated SAPK/JNK level in human HepG2 cells at 25 uM by Western blot analysis; type: ADME, cell-based; conditions: hepg2, 25 µM
[13] = target: T2, Mitogen-activated protein kinase; ERK1/ERK2 (Homo sapiens); test: Inhibition of ERK1/2 phosphorylation in human doxorubicin-resistant HepG2 cells expressing p-gp at 25 uM by Western blot analysis; type: cell-based
HepG2 [14] = test: Effect on nonphosphorylated ERK1/ERK2 level in human HepG2 cells at 25 uM by Western blot analysis; type: ADME, cell-based; conditions: hepg2, 25 µM
HepG2 [15] = test: Effect on nonphosphorylated SAPK/JNK level in human doxorubicin-resistant HepG2 cells expressing p-gp at 25 uM by Western blot analysis; type: ADME, cell-based; conditions: hepg2, 25 µM
[16] = target: T1, MAP kinase p38 (Homo sapiens); test: Inhibition of p38 MAPK phosphorylation in human HepG2 cells at 25 uM by Western blot analysis; type: cell-based

In the case of `Cc1cccc2c3c(ccc12)C1=C(C(=O)C3=O)[C@@H](C)CO1` [DIHYDROTANSHINONE I], the Activity (HepG2 [1]) is reported as “Non-toxic”, the Activity (HepG2 [2]) is reported as “Active” and the Activity (HepG2 [3]) is reported as “Active”. For the same compound, the Activity (HepG2 [4]) was “Non-toxic”, the Activity (HepG2 [5]) was “Active” and the Activity (HepG2 [6]) was “inactive”. The Activity (HepG2 [7]) was “Non-toxic”, the inhibition [8] was “Active” and the Activity (HepG2 [9]) was “Active”. The Activity (HepG2 [10]) was “Active”, the inhibition [11] was “inactive” and the Activity (HepG2 [12]) was “Non-toxic”. For the same compound, the inhibition [13] was “Active”, the Activity (HepG2 [14]) was “Non-toxic” and the Activity (HepG2 [15]) was “Non-toxic”. For the same compound, the inhibition [16] was “Active”.

Source: ChEMBL document CHEMBL3608289, “Miltirone Is a Dual Inhibitor of P-Glycoprotein and Cell Growth in Doxorubicin-Resistant HepG2 Cells” (J Nat Prod, 2015)
